Test results from patent US11096925B2, “Indole derivatives for biofilm disruption and inhibition” (LIFE MATTERS LTD., priority 2015, dated 2021).
“Also recorded” adds a separate entry of the source.

Legend:
[1] = tested on: P. aeruginosa PA01 mature biofilm; experiment: Destruction of mature biofilm in flow cell, CLSM; format: cell-based, Pseudomonas aeruginosa; details: 72 h biofilm, then 48 h treatment, 50 μM compound, 20 μg/ml tobramycin
Protocol: FIG. 2 depicts destruction of P. aeruginosa PA01 mature biofilm; biofilm formed in a flow cell after 72 h of incubation at 37° C. and 48 h more in the presence of 50 μM NN, 20 μg/ml Tobramycin, and 50 μM NN with 20 μg/ml tobramycin. Biofilms were stained with Live/Dead bacterial viability kit. Quantification of BioVolume; Live, dead and total bio-volumes (μm^3/μm^2) calculated based on image analysis and data from the IMARIS software. The images were acquired from three different areas in each treatment.
FIG. 6. depicts destruction of mature, differentiated biofilm of P. aeruginosa PA01. Statistical analysis of CSLM images of biofilm formed in a flow system after 120 h, and with supplementation of 50 μM DIM, 20 μg/ml Tobramycin and a combined treatment of 50 μM DIM with 20 μg/ml Tobramycin. Biofilms were stained with the LIVE/DEAD bacterial viability kit. Quantification of bio-volume: live, dead and total bio-volumes (μm^3/μm^2) were calculated based on image analysis and data from the IMARIS software.
Dynamic growth conditions in flow cell systems are considered to be representative of the real conditions in humeral tissues, where the pathogen thrives in enriched settings. […] Once the efficiency of the new compounds was tested, we proceeded to assess the efficacy of adding antibiotic treatment to the novel compounds to eradicate biofilm (FIG. 2). […] On the other hand, when treated by both the antibiotic and the NN, the biofilm was eradicated and the bacterial cells died.
To investigate the combined destructive effect of the biofilm inhibitor compound and an antibiotic, P. aeruginosa PA01 was cultured for 72 h in the continuous flow system until a mature biofilm had been established Immediately after its establishment, the biofilm was challenged with DIM and/or the antibiotic tobramycin, the known activity of which is protein synthesis inhibition (FIG. 6).

[2] = tested on: P. aeruginosa PA01; experiment: Biofilm formation under static conditions, CLSM with Live/Dead staining; format: cell-based, Pseudomonas aeruginosa; details: for density of attached cells (biofilm) / mortality of the bacterial cells: 50 μM; for density of attached cells (biofilm): 18 h static incubation at 37° C.; for mortality of the bacterial cells: compared with DMSO control
Protocol: (§1) FIGS. 1A-B show prevention of biofilm formation. Confocal laser scanning micrographs (CLSM) of P. aeruginosa PA01 (A) and A. baumannii (B) formed in glass-bottomed 96 well plates after 18 h of static incubation at 37° C. Cultures were grown in the presence of either 50 μM DIV or NN, or an equivalent amount of DMSO for control. Biofilms were stained using the Live/Dead bacterial viability kit. Live, dead and total bio-volumes (μm^3/μm^2) were calculated based on image analysis and data from the IMARIS software. Bars indicate standard deviations for triplicate sets of experiments.
(§2) FIGS. 5A-D show biofilm attenuation of the pathogens P. stuartii (A), S. marcescens (B), A. baumannii (C) and P. aeruginosa PA01 (D). Cultures were grown in the presence of either 50 μM DIM or an equivalent amount of DMSO for control. Biofilms were stained with the LIVE/DEAD bacterial viability kit. For each species and per treatment, live, dead and total bio-volumes (μm^3/μm^2) were calculated based on image analysis and data from the IMARIS software, and % biofilm inhibition was calculated based on live bio-volumes. The results are the average values of analysis of at least three micrographs.
(§3) Bioflims of P. aeruginosa and A. baumanii that were developed on glass slides were determined using confocal scanning laser microscopy (CSLM) (FIG. 1). Accordingly, the density of the biofilms prior to and following treatment by NN and DIV was measured.
(§4) The current study investigated the influence of DIM on the biofilm formation process and on the destruction of existing biofilms of several pathogenic gram-negative bacterial strains.

[3] = tested on: A. baumannii; experiment: as above; format: cell-based, Acinetobacter baumannii; details: for density of attached cells (biofilm) / mortality of the bacterial cells: 50 μM; for density of attached cells (biofilm): 18 h static incubation at 37° C.; for mortality of the bacterial cells: compared with DMSO control
Protocol: as §1, §2, §3, §4

[4] = tested on: P. aeruginosa PA01; experiment: Virulence factor production, spectrophotometry of cell-free culture; format: cell-based, Pseudomonas aeruginosa; details: for virulence factors production: P. aeruginosa PA01 grown with 50 μM compound
Protocol: (§5) FIGS. 3A-B show effect on, P. aeruginosa PA01 pathogenesis. (A) Inhibition of virulence factors production in P. aeruginosa PA01, which were grown in the presence of 50 μM NN or DIV. Tetracycline is used as positive control. Results are based on OD measurements distinctive to each factor and normalized to bacterial growth at OD600 nm. Error bars represent SD of three independent repetitions. (B) C. elegans killing assay assed by SYTOX Orange stain within 24 h.
Results are based on OD measurements specific to each factor and normalized to the growth OD of 600 nm. Bars indicate standard deviations for triplicate sets of experiments.
(§6) Driven by an arsenal of virulence factors added to the biofilm mode of growth, P. aeruginosa PA01 pathogenesis depends on the type of the infection. Therefore, both compounds were tested for their abilities to suppress prominent virulence determinants (FIG. 3A). […] Measuring nematode survivorship following exposure to P. aeruginosa in the absence and presence of modulating compounds, therefore, provides a good model for assessing the effectiveness of the novel compounds on the pathogenesis of the bacteria.
The basis of P. aeruginosa pathogenicity is an arsenal of virulence determinants designed for survival and proliferation in the host that enable bacterial invasion and the subsequent establishment of infection. The success of this microorganism is largely due to its ability to form intractable biofilms and to produce myriad virulence factors controlled by a quorum-sensing (QS) system.

[5] = tested on: Caenorhabditis elegans infected by Pseudomonas aeruginosa; experiment: C. elegans killing assay; format: in vivo; details: SYTOX Orange stain within 24 h
Protocol: as §5, §6

[6] = tested on: A549 Human Lung Cell line infected by P. aeruginosa; experiment: Cytotoxicity and apoptosis of A549 cells infected with pre-treated bacteria, calcein staining; format: cell-based; details: bacteria pre-treated with compound, 24 h
Protocol: FIGS. 4A-B show reduced adhesion and virulence of P. aeruginosa PA01 in human A549 lung cells model. (A) Cytotoxicity effect and apoptosis of A549 cells by P. aeruginosa PA01 pre-treated with DIV or NN during 24 h. The infection progress was monitored by calcein staining using Operetta screening system. All the experiments were performed in triplicates. (B) Adhesion of P. aeruginosa PA01 (5×10^7 CFU/ml) pre-treated with DIV or NN to A549 cells for 1 hr of incubation. Excess bacteria were removed and the released cells were plated followed CFU counts determination.
In order to test the possible effects of these compounds on higher organisms, we tested NN and DIV on A549 Human Lung Cell line infected by P. aeruginosa. Additional tests were carried out for NN and DIV to assess the effect of this compound to enhance the survival of A549 cells during infection with P. aeruginosa PA01. […] Due the fact that adherence to a humeral cell is considered a crucial step in the bacterial infection initiation process, P. aeruginosa PA01 pre-treated with DIV or NN was tested for its adherence potency to lung epithelial cells A549.

[7] = tested on: Erwinia carotovora; experiment: Biofilm formation by plant-associated bacteria, static 96 well plates, CLSM; format: cell-based; details: 50 μM, 18 h static
Protocol: Biofilm formed in glass-bottomed 96 well plates after 18 h of static incubation at 37° C. was investigated by confocal laser scanning micrographs (CLSM). Cultures were grown in the presence of either 50 μM DIM or NN, or an equivalent amount of DMSO for control. Biofilms were stained using the Live/Dead bacterial viability kit. Live, dead and total bio-volumes (μm^3/μm^2) were calculated based on image analysis and data from the IMARIS software.
Erwinia carotovora was cultured in glass-bottomed 96 well plates for 18 h in static conditions. The growth medium was provided with either 50 μM DIM or NN and the resulted biofilms was investigated using CSLM.

[8] = tested on: A. baumannii; experiment: Biofilm formation in dynamic flow-cell system; format: cell-based, Acinetobacter baumannii
Description: (§7) In addition, we tested the anti-biofilm properties of the well-studied anti-cancer compound 3,3′-Diindolylmethane (DIM), a metabolite found in cruciferous vegetables. Inhibition of biofilm establishment by DIM was investigated with different clinical pathogens under static conditions. Biofilm formation by A. baumannii and P. aeruginosa was further tested in a dynamic flow-cell system, in which biofilm inhibition levels of 86% and 76% were obtained, respectively. […] Further examination of the hypothesized synergistic effect obtained by combining conventional antibiotics with the DIM compound may offer a promising strategy for the eradication of biofilm complexes.

[9] = tested on: P. aeruginosa; experiment: Biofilm formation in dynamic flow-cell system; format: cell-based, Pseudomonas aeruginosa
Description: as §7

[10] = tested on: S. marcescens; experiment: Biofilm formation under static conditions, CLSM; format: cell-based, Serratia marcescens; details: 50 μM DIM
Protocol: as §2, §4

[11] = tested on: P. stuartii; experiment: Biofilm formation under static conditions, CLSM; format: cell-based, Providencia stuartii; details: 50 μM DIM
Protocol: as §2, §4

[12] = tested on: P. larvae; details: agar diffusion method (Brenda et al., 2010); cited from earlier work

NC[C@H]1O[C@H](O[C@H]2[C@H](O)[C@@H](O[C@H]3O[C@H](CO)[C@@H](O)[C@H](N)[C@H]3O)[C@H](N)C[C@@H]2N)[C@H](N)C[C@@H]1O [tobramycin, Tobramycin, reference compound]
destruction of mature biofilm [1]: dense biofilm similar to that of the control | destruction of mature biofilm ([1]; listed as antibiotic): little loss of biofilm

c1ccc2c(c1)ccn2-n1ccc2ccccc21 [NN, 1,1′-Biindole]
density of attached cells (biofilm) [2]: reduction of density of attached cells; also recorded: most effective | mortality of the bacterial cells [2]: negligible mortality | density of attached cells (biofilm) [3]: smaller effects | mortality of the bacterial cells [3]: negligible mortality | destruction of mature biofilm [1]: reduced but not eradicated | virulence factors production [4]: reduced significantly | survivorship of C. elegans following exposure to P. aeruginosa [5]: significantly increased survivorship | cytotoxicity effect and apoptosis of A549 cells by pre-treated P. aeruginosa PA01 [6]: suspended the cytotoxicity effect and apoptosis killing | biofilm formation / density of attached cells [7]: prevents biofilm formation

c1ccc2c(Cc3c[nH]c4ccccc34)c[nH]c2c1 [DIM, di(1H-indol-3-yl)methane]
biofilm formation compared to control ([2]; 50 μM DIM, static): substantially reduced biofilms | biofilm formation compared to control ([3]; 50 μM DIM, static): substantially reduced biofilms | destruction of mature biofilm [1]: destruction of existing, stable biofilm | reduction in chitinase production ([4]; 50 μM DIM): 35% | reduction in elastase ([4]; 50 μM DIM): 19% | reduction in protease ([4]; 50 μM DIM): 10% | reduction in pyocyanin ([4]; 50 μM DIM): 21% | reduction in pyoverdine ([4]; 50 μM DIM): 20% | biofilm inhibition levels [8]: 86% | biofilm inhibition levels [9]: 76% | biofilm formation compared to control [10]: substantially reduced biofilms | biofilm formation compared to control [11]: substantially reduced biofilms | biofilm formation / density of attached cells [7]: prevents biofilm formation | antibiotic activity against P. larvae [12]: antibiotic activity

c1ccc2c(c1)CC(c1cc3ccccc3[nH]1)N2 (centres unmarked) [DIV, 2-(indolin-2-yl)-1H-indole]
density of attached cells (biofilm) [2]: reduction of density of attached cells | mortality of the bacterial cells [2]: negligible mortality | density of attached cells (biofilm) [3]: smaller effects | mortality of the bacterial cells [3]: negligible mortality | virulence factors production [4]: reduced significantly | survivorship of C. elegans following exposure to P. aeruginosa [5]: pathogenesis of P. aeruginosa is reduced | cytotoxicity effect and apoptosis of A549 cells by pre-treated P. aeruginosa PA01 [6]: suspended the cytotoxicity effect and apoptosis killing
